Reference: PMC8222254, “Self-assembly of an anion receptor with metal-dependent kinase inhibition and potent in vitro anti-cancer properties” (Nature Communications, 2021)
Where “and” joins values, the source holds several entries; their conditions need not be identical. Equal values may be shown once.

Legend:
Assay in all cases: Kinase inhibition screen, cell-free 33P ATP assay at 10 μM
Type in all cases: biochemical
[1] = target: 140 purified human kinases (Homo sapiens, UniProt O95747); details: for % Activity Run 1 / % Activity Run 2: 10 µM
Sequence of 140 purified human kinases (Homo sapiens, UniProt O95747) (O95747 whole entry): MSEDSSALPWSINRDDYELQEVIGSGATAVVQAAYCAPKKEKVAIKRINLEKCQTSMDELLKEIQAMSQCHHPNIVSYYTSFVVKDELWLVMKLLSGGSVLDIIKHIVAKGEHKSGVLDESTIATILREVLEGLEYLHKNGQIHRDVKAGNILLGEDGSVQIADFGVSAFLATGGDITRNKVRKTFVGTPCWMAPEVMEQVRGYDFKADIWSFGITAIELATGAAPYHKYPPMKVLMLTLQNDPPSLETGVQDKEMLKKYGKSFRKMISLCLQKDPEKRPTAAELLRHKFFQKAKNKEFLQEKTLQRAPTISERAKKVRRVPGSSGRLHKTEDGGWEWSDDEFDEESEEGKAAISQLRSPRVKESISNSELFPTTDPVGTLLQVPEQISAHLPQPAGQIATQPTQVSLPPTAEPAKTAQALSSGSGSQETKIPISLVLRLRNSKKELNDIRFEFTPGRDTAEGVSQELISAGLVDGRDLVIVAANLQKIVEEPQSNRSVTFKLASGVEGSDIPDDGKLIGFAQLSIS
Procedure, shortened: (§1)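 Each complex tested in duplicate at 10 μM; cell-free radiometric assay using ^33P ATP on purified enzymes. Hits mapped by HGNC symbol onto the kinome tree.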

[2] = target: 140 purified human kinases (Homo sapiens, UniProt P49137)
Sequence of 140 purified human kinases (Homo sapiens, UniProt P49137) (P49137 whole entry): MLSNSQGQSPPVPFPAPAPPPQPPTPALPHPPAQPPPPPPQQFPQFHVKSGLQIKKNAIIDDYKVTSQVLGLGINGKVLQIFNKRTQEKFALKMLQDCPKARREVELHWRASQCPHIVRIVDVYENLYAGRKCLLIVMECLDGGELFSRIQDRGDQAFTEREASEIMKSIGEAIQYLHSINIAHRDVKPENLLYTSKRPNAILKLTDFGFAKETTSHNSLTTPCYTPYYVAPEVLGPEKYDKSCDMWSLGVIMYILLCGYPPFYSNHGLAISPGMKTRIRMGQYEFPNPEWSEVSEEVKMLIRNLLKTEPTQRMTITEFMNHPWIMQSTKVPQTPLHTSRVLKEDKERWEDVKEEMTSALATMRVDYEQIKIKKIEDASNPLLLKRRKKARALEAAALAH
Procedure, shortened: as §1

[3] = target: 140 purified human kinases (Homo sapiens, UniProt Q14680); details: MELK
Sequence of 140 purified human kinases (Homo sapiens, UniProt Q14680) (Q14680 whole entry): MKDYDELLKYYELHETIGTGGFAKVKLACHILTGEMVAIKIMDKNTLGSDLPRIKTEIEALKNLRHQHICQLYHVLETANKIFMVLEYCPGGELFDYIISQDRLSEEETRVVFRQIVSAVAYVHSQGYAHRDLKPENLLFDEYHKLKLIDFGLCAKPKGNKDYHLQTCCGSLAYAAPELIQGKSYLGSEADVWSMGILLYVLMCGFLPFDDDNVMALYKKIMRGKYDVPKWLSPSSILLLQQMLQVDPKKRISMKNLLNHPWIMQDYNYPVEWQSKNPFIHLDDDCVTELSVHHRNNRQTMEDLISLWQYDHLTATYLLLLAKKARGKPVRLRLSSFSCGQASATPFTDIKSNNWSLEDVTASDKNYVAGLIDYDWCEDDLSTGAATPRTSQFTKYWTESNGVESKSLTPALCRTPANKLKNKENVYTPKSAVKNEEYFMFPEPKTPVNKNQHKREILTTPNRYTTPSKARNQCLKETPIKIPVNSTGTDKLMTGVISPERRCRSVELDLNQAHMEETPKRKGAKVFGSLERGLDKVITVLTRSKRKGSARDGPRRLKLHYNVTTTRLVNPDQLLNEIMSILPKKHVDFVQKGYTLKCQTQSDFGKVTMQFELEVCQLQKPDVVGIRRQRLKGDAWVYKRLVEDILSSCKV
Procedure, shortened: as §1

[4] = target: T1, 140 purified human kinases (Homo sapiens, UniProt Q15139)
T1 sequence (Q15139 1-912): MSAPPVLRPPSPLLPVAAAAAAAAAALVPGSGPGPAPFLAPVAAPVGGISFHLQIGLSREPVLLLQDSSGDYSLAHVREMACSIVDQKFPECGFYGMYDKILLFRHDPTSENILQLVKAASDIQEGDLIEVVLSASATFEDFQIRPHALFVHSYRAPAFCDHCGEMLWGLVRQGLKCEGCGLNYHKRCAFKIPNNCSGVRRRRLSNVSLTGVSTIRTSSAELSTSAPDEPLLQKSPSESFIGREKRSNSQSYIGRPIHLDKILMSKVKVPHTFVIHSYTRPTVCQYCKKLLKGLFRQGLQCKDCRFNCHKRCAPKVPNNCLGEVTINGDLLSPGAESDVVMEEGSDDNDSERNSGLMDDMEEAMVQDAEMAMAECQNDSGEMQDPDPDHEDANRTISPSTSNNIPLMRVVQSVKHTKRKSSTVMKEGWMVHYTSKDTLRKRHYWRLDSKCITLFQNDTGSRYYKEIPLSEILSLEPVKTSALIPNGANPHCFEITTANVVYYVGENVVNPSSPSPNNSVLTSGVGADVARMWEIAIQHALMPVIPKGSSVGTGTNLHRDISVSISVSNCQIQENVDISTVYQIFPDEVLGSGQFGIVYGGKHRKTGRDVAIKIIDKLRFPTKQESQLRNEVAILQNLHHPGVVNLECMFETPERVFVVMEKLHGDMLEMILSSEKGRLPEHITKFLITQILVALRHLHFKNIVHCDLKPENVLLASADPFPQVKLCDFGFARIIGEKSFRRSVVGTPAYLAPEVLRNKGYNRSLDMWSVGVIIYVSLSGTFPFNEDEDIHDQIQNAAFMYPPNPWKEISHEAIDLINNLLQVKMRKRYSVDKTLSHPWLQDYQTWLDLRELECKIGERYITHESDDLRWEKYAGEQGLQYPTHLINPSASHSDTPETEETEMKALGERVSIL
Procedure, shortened: as §1

[5] = target: 140 purified human kinases (Homo sapiens, UniProt Q16816); details: PHK
Sequence of 140 purified human kinases (Homo sapiens, UniProt Q16816) (Q16816 whole entry): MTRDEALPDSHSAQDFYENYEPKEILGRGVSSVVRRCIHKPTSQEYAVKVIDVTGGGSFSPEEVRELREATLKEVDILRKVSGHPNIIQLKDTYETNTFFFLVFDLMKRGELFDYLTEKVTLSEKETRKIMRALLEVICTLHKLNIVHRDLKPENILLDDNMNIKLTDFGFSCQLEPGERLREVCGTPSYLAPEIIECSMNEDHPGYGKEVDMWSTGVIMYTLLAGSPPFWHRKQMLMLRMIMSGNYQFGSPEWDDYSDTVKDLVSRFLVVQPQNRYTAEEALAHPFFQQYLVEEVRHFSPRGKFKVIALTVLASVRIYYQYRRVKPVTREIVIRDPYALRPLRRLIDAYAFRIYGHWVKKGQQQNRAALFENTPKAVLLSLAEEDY
Procedure, shortened: as §1

[6] = target: T2, 140 purified human kinases (Homo sapiens, UniProt Q96L34)
T2 sequence (Q96L34 1-752): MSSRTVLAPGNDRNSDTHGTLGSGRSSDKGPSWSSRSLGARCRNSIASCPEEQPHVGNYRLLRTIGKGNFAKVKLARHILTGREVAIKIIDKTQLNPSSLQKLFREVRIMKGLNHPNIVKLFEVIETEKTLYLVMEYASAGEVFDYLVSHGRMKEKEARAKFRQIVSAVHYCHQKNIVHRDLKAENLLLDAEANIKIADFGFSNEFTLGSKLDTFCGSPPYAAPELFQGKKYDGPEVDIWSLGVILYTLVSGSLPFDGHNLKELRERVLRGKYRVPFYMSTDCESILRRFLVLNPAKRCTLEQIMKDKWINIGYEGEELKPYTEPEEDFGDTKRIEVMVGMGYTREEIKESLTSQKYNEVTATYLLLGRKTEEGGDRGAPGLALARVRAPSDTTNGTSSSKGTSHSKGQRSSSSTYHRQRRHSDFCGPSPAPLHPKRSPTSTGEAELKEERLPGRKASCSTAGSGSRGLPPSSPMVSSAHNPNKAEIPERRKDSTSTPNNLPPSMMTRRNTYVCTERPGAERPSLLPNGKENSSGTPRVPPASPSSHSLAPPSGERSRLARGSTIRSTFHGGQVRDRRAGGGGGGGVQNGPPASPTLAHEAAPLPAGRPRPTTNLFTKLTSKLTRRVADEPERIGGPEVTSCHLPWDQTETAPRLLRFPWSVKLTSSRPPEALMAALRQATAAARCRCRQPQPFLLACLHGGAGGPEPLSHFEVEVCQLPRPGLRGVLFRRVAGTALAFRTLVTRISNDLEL
Procedure, shortened: as §1

Question: Which results are given for `[Cu+2].[Cu+2].[Cu+2].c1ccc(-c2csc(NCCN(CCNc3nc(-c4ccccn4)cs3)CCNc3nc(-c4ccccn4)cs3)n2)nc1.c1ccc(-c2csc(NCCN(CCNc3nc(-c4ccccn4)cs3)CCNc3nc(-c4ccccn4)cs3)n2)nc1` [[L2Cu3]6+]?
Answer: % Activation, Mean value ([1]; OSR1): 48%; % Inhibition Run 1 ([1]; OSR1): -39.6%; % Inhibition Run 2 ([1]; OSR1): -55.9%; % Inhibition, Mean ([1]; OSR1): -48%; mean % activity ([1]; OSR1): 148%; % activity ([1]; OSR1, Run 1): 139.6%; % activity ([1]; OSR1, Run 2): 155.9%; % Activity Run 1 ([1]; OSR1): 139.60%; % Activity Run 2 ([1]; OSR1): 155.90%; % Inhibition Run 1 ([2]; MAPKAP-K2): 97.8%; % Inhibition Run 2 ([2]; MAPKAP-K2): 98.1%; % Inhibition, Mean ([2]; MAPKAP-K2): 98%; mean % activity ([2]; MAPKAP-K2): 2%; % activity ([2]; MAPKAP-K2, Run 1): 2.2%; % activity ([2]; MAPKAP-K2, Run 2): 1.9%; % Activity inhibition Mean ([2]; MAPKAP-K2, 10 µM): 97.9%; % Activity inhibition Run 1 ([2]; MAPKAP-K2, 10 µM): 97.8%; % Activity inhibition Run 2 ([2]; MAPKAP-K2, 10 µM): 98.1%; % Activity remaining Run 1 ([2]; MAPKAP-K2, 10 µM): 2.20%; % Activity remaining Run 2 ([2]; MAPKAP-K2, 10 µM): 1.90%; % Inhibition Run 1 [3]: 38.7%; % Inhibition Run 2 [3]: 33.3%; % Inhibition, Mean [3]: 36%; mean % activity [3]: 64%; % activity ([3]; Run 1): 61.3%; % activity ([3]; Run 2): 66.7%; % Inhibition Run 1 ([4]; PKD1): 73%; % Inhibition Run 2 ([4]; PKD1): 71.7%; % Inhibition, Mean ([4]; PKD1): 72%; mean % activity ([4]; PKD1): 28%; % activity ([4]; PKD1, Run 1): 27%; % activity ([4]; PKD1, Run 2): 28.3%; % Inhibition Run 1 [5]: 59.9%; % Inhibition Run 2 [5]: 49.3%; % Inhibition, Mean [5]: 55%; mean % activity [5]: 45%; % Inhibition Run 1 ([6]; MARK4): 52.1%; % Inhibition Run 2 ([6]; MARK4): 52.2%; % Inhibition, Mean ([6]; MARK4): 52%; mean % activity ([6]; MARK4): 48%; % activity ([6]; MARK4, Run 1): 47.9%; % activity ([6]; MARK4, Run 2): 47.8%

Question: For `CC(=O)[O-].CC(=O)[O-].CC(=O)[O-].CC(=O)[O-].CC(=O)[O-].CC(=O)[O-].[Zn+2].[Zn+2].[Zn+2].c1ccc(-c2csc(NCCN(CCNc3nc(-c4ccccn4)cs3)CCNc3nc(-c4ccccn4)cs3)n2)nc1.c1ccc(-c2csc(NCCN(CCNc3nc(-c4ccccn4)cs3)CCNc3nc(-c4ccccn4)cs3)n2)nc1` [[L2Zn3]6+], which “% Activation, Mean value” ([1]; OSR1) is on record?
Answer: 38%

Question: And the “% Inhibition, Mean” value ([1]; OSR1)?
Answer: -38%

Question: What about the “% Inhibition, Run 1 / Run 2” value ([1]; OSR1) of the same compound?
Answer: -37% and -40%

Question: And the mean % activity ([1]; OSR1)?
Answer: 138%

Question: And the “% Activity Run 1” value ([1]; OSR1)?
Answer: 137.0%

Question: And the “% Activity Run 2” value ([1]; OSR1)?
Answer: 140.0%

Question: And the “% activity” value ([1]; OSR1, duplicate runs)?
Answer: 137% and 140%

Question: And the “% Inhibition, Mean” value ([2]; MAPKAP-K2)?
Answer: 41%

Question: And the “% Inhibition, Run 1 / Run 2” value ([2]; MAPKAP-K2)?
Answer: 47% and 35%

Question: What about the mean % activity ([2]; MAPKAP-K2) of the same compound?
Answer: 60%

Question: What about the “% activity” value ([2]; MAPKAP-K2, duplicate runs) of the same compound?
Answer: 54% and 66%

Question: And the “% Inhibition, Mean” value [3]?
Answer: 27%

Question: What about the “% Inhibition, Run 1 / Run 2” value [3] of the same compound?
Answer: 35% and 19%

Question: And the mean % activity [3]?
Answer: 73%

Question: And the “% activity” value ([3]; duplicate runs)?
Answer: 65% and 81%

Question: What about the “% Inhibition, Mean” value ([4]; PKD1) of the same compound?
Answer: 45%

Question: What about the “% Inhibition, Run 1 / Run 2” value ([4]; PKD1) of the same compound?
Answer: 50% and 40%

Question: And the mean % activity ([4]; PKD1)?
Answer: 55%

Question: What about the “% activity” value ([4]; PKD1, duplicate runs) of the same compound?
Answer: 50% and 60%

Question: And the “% Inhibition, Mean” value [5]?
Answer: 64%

Question: And the mean % activity [5]?
Answer: 36%

Question: What about the “% activity” value ([5]; duplicate runs) of the same compound?
Answer: 32% and 39%

Question: What about the “% Inhibition, Mean” value ([6]; MARK4) of the same compound?
Answer: 39%

Question: And the “% Inhibition, Run 1 / Run 2” value ([6]; MARK4)?
Answer: 48% and 31%

Question: And the mean % activity ([6]; MARK4)?
Answer: 61%

Question: And the “% activity” value ([6]; MARK4, duplicate runs)?
Answer: 52% and 70%
